Patent US11980613B2, “Methods for reversing HIV latency using BAF complex modulating compounds” (priority 2018, dated 2024)

What was measured:
[1] = system: BAF target genes c-MYC and p21; assay: Biomarkers: mRNA of BAF target genes p21 and c-MYC in CD4+ T cells; format: cell-based, human
Protocol: [drawing 27] i. BRD-K25923209: To Macrocycle 2141-039b (0.804 g, 1.550 mmol) dissolved in MeOH (Volume: 15.50 ml) was added tin(II) chloride dihydrate (3.50 g, 15.50 mmol). The reaction mixture was stirred at 40° C. for 24 h until LC/MS indicated complete consumption of starting material (nitro) and presence of desired mass. Upon completion, the reaction mixture was concentrated and the resulting residue was dissolved in EtOAc and washed with 2 M aq. KOH (2×). The combined aqueous layers were washed with EtOAc (4×). The resulting organic layers were washed with brine, saturated aqueous NaHCO3, water, and brine, dried over MgSO4, filtered, and concentrated. The crude aniline was sufficiently pure to use in the capping step and therefore was used without purification. Note: The workup as described above produces a lot of precipitate/emulsion. This can be overcome by extensive washing or alternately, the reaction can be quenched with 1 volume of 1 M NaOH, stirred with celite for 10 minutes, and filtered prior to workup to yield 33.8% (17.2 mg) over 3 steps. (M+H)^+ calculated=489.286 (M+H)^+ average (3 ESI replicates)=489.2866±0.92. j. BRD-K80443127: A screwtop vial was charged with aniline (BRD-K25923209) (43.3 mg, 0.089 mmol) and CH2Cl2 (Volume: 886 μl, Density: 1.325 g/ml). Isopropyl chloroformate (115 μl, 0.115 mmol) and DIEA (46.4 μl, 0.266 mmol) were added dropwise and reaction stirred under ambient conditions for 1 h. […] The reaction mixture was loaded directly onto SiO2 and purified via ISCO (1-12% MeOH in CH2Cl2, 20 min); Collected fractions 40-44 to afford the product as a yellow oil in 33.8% (17.2 mg) yield. (M+H)^+ calculated=575.3228 (M+H)^+ average (3 ESI replicates)=575.3235±1.32. k. BRD-K04244835: A 2.5 mL microwave vial was charged with aniline (BRD-K25923209) (40 mg, 0.082 mmol) and EtOH (Volume: 819 μl, Density: 0.81 g/ml). Squaramide (CRE-III-001) (20.75 mg, 0.098 mmol), DIEA (42.8 μl, 0.246 mmol), and DMAP (2.000 mg, 0.016 mmol) were added in sequence and the vial was sealed. […] (M+H)^+ calculated=654.365 (M+H)^+ average (3 ESI replicates)=654.3661±1.64. […]

[2] = system: HIV-1 5′-LTR (Nuc-1); assay: FAIRE assay in J-Lat 11.1; format: cell-based; settings: overnight compound treatment
Protocol: (§1) 24. Activation markers, apoptosis and viability of primary CD4+ T cells: Activation markers, namely CD25 and CD69 were analyzed as described previously^55. Briefly, CD4+ T cells were treated with DMSO, compound, or PMA/Ionomycin for 24 and 72 hours. Cells were collected, washed with PBS and stained for 30 min at 4° C. with α-CD25-APC (17-0259-42, eBioscience) and α-CD69-FITC (11-0699-42, eBioscience). Following two washes with PBS, cells were fixed with 1% HCHO at 4° C. and analyzed by flow cytometry with Becton Dickinson Fortessa instrument. To determine percent of apoptotic cells after treatment cells were stimulated for 24 and 72 hours and stained with anti-AnnexinV-PE (BD Biosciences, cat. 556454) in the presence of 2.5 mM CaCl2 for 20 min at 4° C. Cells were analyzed by Becton Dickinson Fortessa flow cytometer. Data represents the average of six experiments performed on cells from different healthy donors. Viability of ex-vivo infected primary CD4+ cells was determined by flow cytometry on the basis of forward versus side scatter analysis. 25. FAIRE: FAIRE experiment was performed as described, with minor modifications^55. Eighteen hours prior to analysis, J-Lat 11.1 cells were treated with BAFi's where indicated. Cells were fixed for 10 min by adding formaldehyde to a final concentration of 1% at room temperature. Twenty million cells were used per FAIRE experiment. […]

[3] = system: human primary CD4+ T cells; assay: T cell activation markers CD25 and CD69; format: cell-based; settings: 24 and 72 hours; two healthy donors
Protocol: as §1

With `CO[C@H]1CN(C)C(=O)c2cc(NC(=O)OC(C)C)ccc2OC[C@H](C)N(Cc2ccc(-c3ccccn3)cc2)C[C@@H]1C` [BRD-K80443127] the “differential expression of c-MYC and p21” value ([1]; CD4+ T cells from 3 healthy donors, 3 μM, 16 hours) was “consistent with BAF inhibition”, the C-MYC transcript levels ([1]; three patients, 10 μM) was “significant decrease” and the p21 transcript levels ([1]; three patients, 10 μM) was “significant decrease”. The “chromatin accessibility at the Nuc-1 position of the 5′ LTR” value [2] was “increased chromatin accessibility” and the “CD25 and CD69 expression” value [3] was “no effect”.
